According to US8084649B2, “Herbicides” (Syngenta Crop Protection, inc., priority 2007, dated 2011):

Legend:
Assay type in all cases: in vivo
[1] = system: Alopecurus myosuroides (ALOMY); assay: Pre-emergence herbicidal activity, glasshouse pot test; settings: Alopecurus myosuroides, 480 h, rate 500 g/ha, evaluated after 20 days, read-out: Pre-emergence activity, ALOMY (100=total damage to plant; 0=no damage to plant)
Procedure, shortened: (§1)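 One day after sowing in sterilised soil, pots receive an aqueous spray made from the compound dissolved in acetone and a formulation of emulsifier, N-methylpyrrolidone, glycol ether and X-77 wetter. Injury is assessed 20 days later against untreated expectations, scored from 0 (no damage) to 100.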

Avena fatua (AVEFA) [2] = assay: as above; settings: Avena fatua, 480 h, rate 500 g/ha, evaluated after 20 days, read-out: Pre-emergence activity, AVEFA (100=total damage to plant; 0=no damage to plant)
Procedure, shortened: as §1

[3] = system: Digitaria sanguinalis (DIGSA); assay: as above; settings: Digitaria sanguinalis, 480 h, rate 500 g/ha, evaluated after 20 days, read-out: Pre-emergence activity, DIGSA (100=total damage to plant; 0=no damage to plant)
Procedure, shortened: as §1

[4] = system: Echinochloa crus-galli (ECHCG); assay: as above; settings: Echinochloa crus-galli, 480 h, rate 500 g/ha, evaluated after 20 days, read-out: Pre-emergence activity, ECHCG (100=total damage to plant; 0=no damage to plant)
Procedure, shortened: as §1

Lolium perenne (LOLPE) [5] = assay: as above; settings: Lolium perenne, 480 h, rate 500 g/ha, evaluated after 20 days, read-out: Pre-emergence activity, LOLPE (100=total damage to plant; 0=no damage to plant)
Procedure, shortened: as §1

Setaria faberi (SETFA) [6] = assay: as above; settings: Setaria faberi, 480 h, rate 500 g/ha, evaluated after 20 days, read-out: Pre-emergence activity, SETFA (100=total damage to plant; 0=no damage to plant)
Procedure, shortened: as §1

[7] = system: Alopecurus myosuroides (ALOMY); assay: Post-emergence herbicidal activity, glasshouse pot test; settings: Alopecurus myosuroides, rate 500 g/ha, evaluated after 14 or 15 days, read-out: Post-emergence activity, ALOMY (100=total damage to plant; 0=no damage to plant)
Procedure, shortened: (§2)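 Test species were grown in sterilised soil for 10 days, sprayed post-emergence with the aqueous formulated compound, and kept in a greenhouse under optimum conditions. Herbicidal effect was assessed after 14 or 15 days as percent damage, where 0 means no effect.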

Avena fatua (AVEFA) [8] = assay: as above; settings: rate 500 g/ha, evaluated after 14 or 15 days; for pest or weed control at 500 g/ha: Avena fatua, read-out: Post-emergence activity, AVEFA (100=total damage to plant; 0=no damage to plant)
Procedure, shortened: as §2

[9] = system: Digitaria sanguinalis (DIGSA); assay: as above; settings: Digitaria sanguinalis, rate 500 g/ha, evaluated after 14 or 15 days, read-out: Post-emergence activity, DIGSA (100=total damage to plant; 0=no damage to plant)
Procedure, shortened: as §2

[10] = system: Echinochloa crus-galli (ECHCG); assay: as above; settings: Echinochloa crus-galli, rate 500 g/ha, evaluated after 14 or 15 days, read-out: Post-emergence activity, ECHCG (100=total damage to plant; 0=no damage to plant)
Procedure, shortened: as §2

Lolium perenne (LOLPE) [11] = assay: as above; settings: Lolium perenne, rate 500 g/ha, evaluated after 14 or 15 days, read-out: Post-emergence activity, LOLPE (100=total damage to plant; 0=no damage to plant)
Procedure, shortened: as §2

Setaria faberi (SETFA) [12] = assay: as above; settings: Setaria faberi, rate 500 g/ha, evaluated after 14 or 15 days, read-out: Post-emergence activity, SETFA (100=total damage to plant; 0=no damage to plant)
Procedure, shortened: as §2

SMILES | pest or weed control at 500 g/ha [1] | pest or weed control at 500 g/ha (Avena fatua (AVEFA) [2]) | pest or weed control at 500 g/ha [3] | pest or weed control at 500 g/ha [4] | pest or weed control at 500 g/ha (Lolium perenne (LOLPE) [5]) | pest or weed control at 500 g/ha (Setaria faberi (SETFA) [6]) | pest or weed control at 500 g/ha [7] | pest or weed control at 500 g/ha (Avena fatua (AVEFA) [8]) | pest or weed control at 500 g/ha [9] | pest or weed control at 500 g/ha [10] | pest or weed control at 500 g/ha (Lolium perenne (LOLPE) [11]) | pest or weed control at 500 g/ha (Setaria faberi (SETFA) [12]) | Post-emergence activity, AVEFA (100=total damage to plant; 0=no damage to plant) (Avena fatua (AVEFA) [8])
CCSC(C)CC1CC(=O)C(c2c(C)cc(C)cc2CC)=C(O)C1 (stereo not drawn) [Compound T1] | 60% | 30% | 70% | 100% | 70% | 70% | 70% | 70% | 90% | 90% | 70% | 80% | 
CCc1cc(CC)c(C2=C(O)CC3(CCOCC3)CC2=O)c(CC)c1 [Compound T2] | 80% | 70% | 100% | 100% | 100% | 90% | 80% | 80% | 100% | 100% | 80% | 80% | 
Cc1ccc(-c2ccc(Cl)cc2)cc1C1=C(O)CC2(CCOCC2)CC1=O [Compound T3] | 40% | 50% | 100% | 100% | 60% | 100% | 80% | 80% | 100% | 100% | 80% | 100% | 
Cc1cc(C)c(C2=C(O)CC3(CCS(=O)(=O)CC3)CC2=O)c(C)c1 [Compound T5] | 70% | 10% | 70% | 40% | 60% | 30% | 70% | 20% | 70% | 60% | 70% | 70% | 
Cc1cc(C)c(C2=C(O)CC3(CCSCC3)CC2=O)c(C)c1 [Compound T6] | 20% | 30% | 10% | 10% | 0% | 10% | 20% | 10% | 90% | 80% | 10% | 80% | 
CCSC(C)CC1CC(=O)C(c2c(CC)cc(C)cc2CC)=C(O)C1 (stereo not drawn) [Compound T7, 2-(2,6-diethyl-4-methylphenyl)-5-[2-(ethylthio)propyl]cyclohexane-1,3-dione] | 100% | 100% | 100% | 100% | 100% | 100% | 100% | 90% | 90% | 90% | 100% | 100% | 
CCc1cc(C)cc(C)c1C1=C(O)CC(CC(C)SC)CC1=O (stereo not drawn) [Compound T10] | 100% | 70% | 100% | 100% | 100% | 100% | 100% | 100% | 90% | 90% | 100% | 90% | 
CSCCC1CC(=O)C(c2c(C)cc(C)cc2C)=C(O)C1 (stereo not drawn) [Compound T12] | 70% | 20% | 0% | 30% | 40% | 0% | 80% | 30% | 90% | 80% | 60% | 90% | 
CCc1cc(C)cc(C)c1C1=C(O)CC(CCSC)CC1=O (stereo not drawn) [Compound T13] | 100% | 70% | 100% | 80% | 100% | 80% | 90% | 80% | 100% | 90% | 80% | 90% | 
CCc1cc(C)cc(CC)c1C1=C(O)CC(CCS(C)(=O)=O)CC1=O (stereo not drawn) [Compound T14] | 90% | 100% | 100% | 100% | 100% | 100% | 90% |  | 100% | 100% | 90% | 100% | 90
CCc1cc(C)cc(CC)c1C1=C(O)CC(CC[S+](C)[O-])CC1=O (stereo not drawn) [Compound T15] | 100% | 80% | 100% | 100% | 100% | 90% | 90% | 80% | 100% | 100% | 100% | 80% | 
CCc1cc(C)cc(CC)c1C1=C(O)CC(CCSC)CC1=O (stereo not drawn) [Compound T16] | 90% | 70% | 100% | 90% | 100% | 100% | 100% | 80% | 100% | 70% | 90% | 90% | 
CCc1cc(C)cc(CC)c1C1=C(O)CC(CC(C)SC)CC1=O (stereo not drawn) [Compound T17] | 90% | 90% | 100% | 100% | 100% | 100% | 0% | 90% | 100% | 90% | 100% | 90% | 
CSC(C)CC1CC(=O)C(c2c(C)cc(C)cc2C)=C(O)C1 (stereo not drawn) [Compound T18] | 20% | 10% | 60% | 70% | 10% | 40% | 60% | 60% | 80% | 70% | 70% | 80% | 
